What all share (format): cell-based
In one experiment the test system is E. coli, NIHJ. Briefly: Antibacterial activity (MIC), E. coli NIHJ. The conditions noted are these: Escherichia coli. As for the experimental part:
(§1) The antibacterial activity assays were performed by the method specified by Japan Society of Chemotherapy (Chemotherapy 29(1), 76 (1981). The table of antibacterial activity is followed by the reaction schemes for the synthesis of various spiro ring-containing cyclic amine derivatives, intermediate compounds for synthesis of quinolone rings and synthesis of various spiro compounds.

The test system of a further experiment is S. flexneri, 2A 5503. Briefly: Antibacterial activity (MIC), S. flexneri 2A 5503. The conditions noted are these: Shigella flexneri, 2A5503. As for the experimental part:
as §1

Another experiment deals with Pr. vulgaris, 08601. Briefly: Antibacterial activity (MIC), Pr. vulgaris 08601. The conditions noted are these: Proteus vulgaris. As for the experimental part: as §1
The subject of a further experiment is Pr. mirabillis, IF0-3849. Description: Antibacterial activity (MIC), Pr. mirabillis IF0-3849. As for the experimental part: as §1
Another experiment has as its system Ser. marcescens, 10100. Briefly: Antibacterial activity (MIC), Ser. marcescens 10100. The note with it: Serratia marcescens, 10100, Ser. marcescens. As to the method:
as §1

The next experiment deals with Ps. aeruginosa, 32104. Briefly: Antibacterial activity (MIC), Ps. aeruginosa 32104. The note with it: Pseudomonas aeruginosa, 32104, Ps. aeruginosa. As to the method: as §1
Another experiment concerns Ps. aeruginosa, 32121. Briefly: Antibacterial activity (MIC), Ps. aeruginosa 32121. The conditions noted are these: Pseudomonas aeruginosa, 32121, Ps. aeruginosa. As to the method: as §1
The test system of experiment [1] is Ps. maltophilia, IID-1275. Briefly: Antibacterial activity (MIC), Ps. maltophilia IID-1275. The conditions noted are these: Stenotrophomonas maltophilia, IID1275, Ps. maltophilia. As to the method:
as §1

A further experiment has as its system S. aureus, 209P. Description: Antibacterial activity (MIC), S. aureus 209P. The note with it: Staphylococcus aureus. As to the method: as §1
The next experiment relates to S. epidermidis, 56500. Briefly: Antibacterial activity (MIC), S. epidermidis 56500. The note with it: Staphylococcus epidermidis, 56500, S. epidermidis. As to the method: as §1
Another experiment concerns Str. pyogenes, G-36. Briefly: Antibacterial activity (MIC), Str. pyogenes G-36. The conditions noted are these: Streptococcus pyogenes, G36, Str. pyogenes. As for the experimental part:
as §1

In experiment [2] the test system is Str. faecalis, ATCC-19433. Description: Antibacterial activity (MIC), Str. faecalis ATCC-19433. The conditions noted are these: Enterococcus faecalis, ATCC19433, Str. faecalis. As to the method: as §1

Molecules are shown by their SMILES. Values after ≈ are worked out from the molar mass of the structure shown. Some results are limits rather than exact numbers.

As usually defined, the MIC is the lowest concentration found to suppress growth. A low value points to greater potency. Turning to `O=C(O)c1cn(C2CC2)c2cc(N3CCNC4(CC4)C3)c(F)cc2c1=O` [Compound 37, 1-Cyclopropyl-7-(4,7-diazaspiro[2.5]octan-7-yl)-6-fluoro-1,4-dihydro-4-oxoquinoline-3-carboxylic acid], the MIC against E. coli, NIHJ was no more than 0.05 µg/mL; with S. flexneri, 2A 5503 it was no more than 0.05 µg/mL; with Pr. vulgaris, 08601, no more than 0.05 µg/mL; against Pr. mirabillis, IF0-3849, no more than 0.05 µg/mL; in the experiment on Ser. marcescens, 10100 it was 0.1 µg/mL (≈ 0.28 µM); in the experiment with Ps. aeruginosa, 32104 it was 0.2 µg/mL (≈ 0.56 µM). Besides, the MIC in the experiment with Ps. aeruginosa, 32121 was 0.2 µg/mL (≈ 0.56 µM); in [1], 0.39 µg/mL (≈ 1.09 µM); against S. aureus, 209P, 0.2 µg/mL (≈ 0.56 µM); against S. epidermidis, 56500, 0.39 µg/mL (≈ 1.09 µM); with Str. pyogenes, G-36, 0.78 µg/mL (≈ 2.18 µM); in [2] it was 0.78 µg/mL (≈ 2.18 µM).

Consider `O=C(O)c1cn(C2CC2)c2c(Cl)c(N3CC(O)C4(CC4)C3)c(F)cc2c1=O` (stereo not drawn) [Compound 39, 7-(7-Hydroxy-5-azaspiro[2.4]heptan-5-yl)-8-chloro-1-cyclopropyl-6-fluoro-1,4-dihydro-4-oxoquinoline-3-carboxylic acid], for which the MIC in the experiment with E. coli, NIHJ was no more than 0.05 µg/mL; in the experiment with S. flexneri, 2A 5503 it was no more than 0.05 µg/mL; against Pr. vulgaris, 08601, no more than 0.05 µg/mL; against Pr. mirabillis, IF0-3849, 0.2 µg/mL (≈ 0.509 µM); in the experiment on Ser. marcescens, 10100, 0.39 µg/mL (≈ 0.993 µM); against Ps. aeruginosa, 32104 it was 1.56 µg/mL (≈ 3.97 µM). Further, the MIC against Ps. aeruginosa, 32121 was 0.39 µg/mL (≈ 0.993 µM); in experiment [1], no more than 0.05 µg/mL; in the experiment with S. aureus, 209P, no more than 0.05 µg/mL; in the experiment on S. epidermidis, 56500, no more than 0.05 µg/mL; in the experiment on Str. pyogenes, G-36, 0.39 µg/mL (≈ 0.993 µM); in [2], 0.39 µg/mL (≈ 0.993 µM).

On to `CC(C)(C)n1cc(C(=O)O)c(=O)c2cc(F)c(N3CC(N)C4(CC4)C3)nc21` (stereo not drawn) [Compound 41b, 7-(7-Amino-5-azaspiro[2.4]heptan-5-yl)-1,4-dihydro-6-fluoro-1-(2-methyl-2-propyl)-4-oxo-1,8-naphthyridine-3-carboxylic acid], for which the MIC is no more than 0.05 µg/mL in the experiment on E. coli, NIHJ; no more than 0.05 µg/mL in the experiment with S. flexneri, 2A 5503; 0.1 µg/mL (≈ 0.267 µM) in the experiment with Pr. vulgaris, 08601; 0.2 µg/mL (≈ 0.534 µM) against Pr. mirabillis, IF0-3849; 0.1 µg/mL (≈ 0.267 µM) with Ser. marcescens, 10100; 0.2 µg/mL (≈ 0.534 µM) in the experiment on Ps. aeruginosa, 32104. The MIC against Ps. aeruginosa, 32121 was 0.1 µg/mL (≈ 0.267 µM); in experiment [1], 0.1 µg/mL (≈ 0.267 µM); with S. aureus, 209P, no more than 0.05 µg/mL; with S. epidermidis, 56500, 0.1 µg/mL (≈ 0.267 µM); in the experiment on Str. pyogenes, G-36, 0.39 µg/mL (≈ 1.04 µM); in experiment [2], 0.2 µg/mL (≈ 0.534 µM).

As to `NC1CN(c2c(F)cc3c(=O)c(C(=O)O)cn(C4CC4)c3c2F)CC12CCC2` (stereo not drawn) [Compound 94], the MIC was no more than 0.05 µg/mL against E. coli, NIHJ; no more than 0.05 µg/mL against S. flexneri, 2A 5503; no more than 0.05 µg/mL in the experiment with Pr. vulgaris, 08601; 0.1 µg/mL (≈ 0.257 µM) against Pr. mirabillis, IF0-3849; 0.1 µg/mL (≈ 0.257 µM) in the experiment with Ser. marcescens, 10100; 0.1 µg/mL (≈ 0.257 µM) against Ps. aeruginosa, 32104. For the same molecule, the MIC in the experiment on Ps. aeruginosa, 32121 was 0.39 µg/mL (≈ 1 µM); in [1], 0.2 µg/mL (≈ 0.514 µM); in the experiment with S. aureus, 209P it was no more than 0.05 µg/mL; in the experiment with S. epidermidis, 56500, no more than 0.05 µg/mL; in the experiment with Str. pyogenes, G-36, 0.39 µg/mL (≈ 1 µM); in experiment [2] it was 0.2 µg/mL (≈ 0.514 µM).

Turning to `NC1CN(c2c(F)cc3c(=O)c(C(=O)O)cn(C4CC4)c3c2F)CC12CCCC2` (stereo not drawn) [Compound 95, 7-(4-amino-2-azaspiro[4.4]nonan-2-yl)-1-cyclopropyl-6,8-difluoro-4-oxo-1,4-dihydroquinoline-3-carboxylic acid], the MIC against E. coli, NIHJ was no more than 0.05 µg/mL; against S. flexneri, 2A 5503, no more than 0.05 µg/mL; against Pr. vulgaris, 08601, no more than 0.05 µg/mL; against Pr. mirabillis, IF0-3849, no more than 0.05 µg/mL; with Ser. marcescens, 10100, 0.1 µg/mL (≈ 0.248 µM); with Ps. aeruginosa, 32104, 0.39 µg/mL (≈ 0.967 µM). The MIC in the experiment with Ps. aeruginosa, 32121 was 0.2 µg/mL (≈ 0.496 µM); in experiment [1] it was 0.1 µg/mL (≈ 0.248 µM); in the experiment on S. aureus, 209P, no more than 0.05 µg/mL; against S. epidermidis, 56500, 0.1 µg/mL (≈ 0.248 µM); in the experiment with Str. pyogenes, G-36, 0.2 µg/mL (≈ 0.496 µM); in [2], 0.2 µg/mL (≈ 0.496 µM).

For `C[C@H]1COc2c(N3CC(N)C4(CCC4)C3)c(F)cc3c(=O)c(C(=O)O)cn1c23` (stereo partly drawn) [Compound 98, 10-(8-Amino-6-azaspiro[3.4]octan-6-yl)-9-fluoro-2,3-dihydro-3-(S)-methyl-7-oxo-7H-pyrido[1,2,3-de][1,4]-benzoxazine-6-carboxylic acid], the minimum inhibitory concentration (MIC) in the experiment on E. coli, NIHJ is no more than 0.05 µg/mL; against S. flexneri, 2A 5503, no more than 0.05 µg/mL; against Pr. vulgaris, 08601 it was no more than 0.05 µg/mL; against Pr. mirabillis, IF0-3849 it was 0.2 µg/mL (≈ 0.516 µM); in the experiment on Ser. marcescens, 10100, 0.1 µg/mL (≈ 0.258 µM); against Ps. aeruginosa, 32104 it was 0.39 µg/mL (≈ 1.01 µM). Moreover, the MIC against Ps. aeruginosa, 32121 is 0.2 µg/mL (≈ 0.516 µM); in [1], 0.2 µg/mL (≈ 0.516 µM); in the experiment on S. aureus, 209P, no more than 0.05 µg/mL; in the experiment with S. epidermidis, 56500, no more than 0.05 µg/mL; in the experiment with Str. pyogenes, G-36 it was 0.39 µg/mL (≈ 1.01 µM); in experiment [2] it was 0.2 µg/mL (≈ 0.516 µM).

Consider `O=C(O)c1cn(C2CC2)c2c(F)c(N3CC(CO)C4(CCC4)C3)c(F)cc2c1=O` (stereo not drawn) [Compound 108, 1-Cyclopropyl-6,8,difluoro-7-(8-hydroxymethyl-6-azaspiro-[3.4]octan-6-yl)-4-oxo-1,4-dihydroquinoline-3-carboxylic acid], for which the MIC against E. coli, NIHJ was determined as 0.2 µg/mL (≈ 0.495 µM); in the experiment on S. flexneri, 2A 5503, 0.2 µg/mL (≈ 0.495 µM); with Pr. vulgaris, 08601 it was 0.1 µg/mL (≈ 0.247 µM); against Pr. mirabillis, IF0-3849, 0.78 µg/mL (≈ 1.93 µM); in the experiment on Ser. marcescens, 10100 it was 1.56 µg/mL (≈ 3.86 µM); with Ps. aeruginosa, 32104 it was 1.56 µg/mL (≈ 3.86 µM). For the same molecule, the MIC against Ps. aeruginosa, 32121 was 0.39 µg/mL (≈ 0.964 µM); in experiment [1], 1.56 µg/mL (≈ 3.86 µM); against S. aureus, 209P, no more than 0.05 µg/mL; against S. epidermidis, 56500, no more than 0.05 µg/mL; in the experiment on Str. pyogenes, G-36, 0.39 µg/mL (≈ 0.964 µM); in experiment [2] it was 0.2 µg/mL (≈ 0.495 µM).

With `N[C@@H]1CN(c2nc3c(cc2F)c(=O)c(C(=O)O)cn3-c2ccc(F)cc2F)CC12CC2` [Compound 111b, (-)-7-[7-(S)-amino-5-azaspiro[2.3]heptan-5-yl)-6-fluoro-1-(2,4-difluorophenyl)-1,4-dihydro-4-oxo-1,8-naphthyridine-3-carboxylate], the MIC is no more than 0.05 µg/mL with E. coli, NIHJ; no more than 0.05 µg/mL in the experiment on S. flexneri, 2A 5503; no more than 0.05 µg/mL in the experiment with Pr. vulgaris, 08601; 0.2 µg/mL (≈ 0.465 µM) against Pr. mirabillis, IF0-3849; 0.1 µg/mL (≈ 0.232 µM) in the experiment on Ser. marcescens, 10100; 0.2 µg/mL (≈ 0.465 µM) in the experiment with Ps. aeruginosa, 32104. The MIC with Ps. aeruginosa, 32121 is 0.1 µg/mL (≈ 0.232 µM); in experiment [1], 0.2 µg/mL (≈ 0.465 µM); against S. aureus, 209P it was no more than 0.05 µg/mL; in the experiment with S. epidermidis, 56500, 0.1 µg/mL (≈ 0.232 µM); in the experiment on Str. pyogenes, G-36, 0.2 µg/mL (≈ 0.465 µM); in experiment [2], 0.39 µg/mL (≈ 0.906 µM).
